Test results published in patent publication US12116358B2, “Substituted indoles and methods of use thereof” (EPIZYME, INC., priority 2018, dated 2024).
Like-named read-outs stand apart in the source and are kept apart here.

Key:
[1] = system: H3K36me3 in A549 cells; assay: In-Cell Western (ICW) assay of SETD2 inhibitors (A549 assay); format: cell-based, human; conditions: A549 cells, read-out: SETD2 A549
Summary of the method: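 A549 cells seeded at 4,000/well onto compound and incubated 3 days at 37° C. Methanol-fixed cells stained overnight at 4° C with anti-H3K36me3 (1:1000), then IRDye 800CW secondary with DRAQ5 DNA counterstain. Plates read by Licor imaging at 700 and 800 channels.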

[2] = target: T1, SETD2(1434-1711) (Homo sapiens, UniProt Q9BYW2); assay: SETD2 (1434-1711) assay; format: biochemical; conditions: read-out: SETD2 (1434-1711)
T1 construct: SETD2 (1434-1711) Assay; catalogue N/A
T1 sequence (Q9BYW2 1434-1711): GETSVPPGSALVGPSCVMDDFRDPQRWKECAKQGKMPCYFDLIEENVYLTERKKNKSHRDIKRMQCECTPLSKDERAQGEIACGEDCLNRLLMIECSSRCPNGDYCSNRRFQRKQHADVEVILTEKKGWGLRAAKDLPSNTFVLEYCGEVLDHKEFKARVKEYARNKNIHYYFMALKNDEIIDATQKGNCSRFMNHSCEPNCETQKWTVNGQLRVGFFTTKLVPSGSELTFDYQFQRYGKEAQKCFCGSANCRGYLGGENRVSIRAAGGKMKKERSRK

| SMILES | IC50 ([1]; Homo sapiens) | IC50 [2] | IC50 [1] |
| --- | --- | --- | --- |
| Cc1ccc(F)c2cc(C(=O)N[C@@H]3CCC[C@H](N4CCn5c(cccc5=O)C4)C3)[nH]c12 [compound 1048] | 70 nM | 20 nM |  |
| Cc1cc2nccn2nc1C(NC(=O)c1cc2c(F)ccc(C)c2[nH]1)C1CC1 (centres unmarked) [compound 481] |  | 1900 nM | 9700 nM |
| Cc1ccc(F)c2cc(C(=O)Nc3cccc(N4CCC(N5CCCC5)CC4)c3)[nH]c12 [compound 180] | 400 nM | 30 nM |  |
| Cc1cccnc1C(Cc1cnn(CC2CC2)c1)NC(=O)c1cc2cccc(C)c2[nH]1 (centres unmarked) [compound 175] | 300 nM | 70 nM |  |
| CC[C@H]1CN([C@@H]2CCC[C@@H](NC(=O)c3cc4c(F)ccc(C)c4[nH]3)C2)CCN1C(C)=O [compound 1086] | > 2000 nM | 800 nM |  |
| COCCN(C)C1CCN(c2cccc(NC(=O)c3cc4c(F)ccc(C)c4[nH]3)c2)C1 (centres unmarked) [compound 156] | 300 nM | 30 nM |  |
| Cc1ccc(F)c2cc(C(=O)Nc3cccc(N4CCN(C5CC5)CC4)c3)[nH]c12 [compound 236] |  | 200 nM | 600 nM |
| Cc1ccc(F)c2cc(C(=O)NC3CCCC(N4CCN(C(=O)OC(C)C)CC4)C3)[nH]c12 (centres unmarked) [compound 997] |  | 10 nM | 80 nM |
| Cc1ccc(F)c2cc(C(=O)NC3CCCC(N4CCN5C(=O)OCC5C4)C3)[nH]c12 (centres unmarked) [compound 1111] |  | 20 nM | 70 nM |
| Cc1ccc(F)c2cc(C(=O)N[C@@H]3CCC[C@H](N4CCn5cncc5C4)C3)[nH]c12 [compound 991] | 300 nM | 60 nM |  |
| Cc1ccc(F)c2cc(C(=O)Nc3cccc(N4CC5CCC(C4)C5N(C)C)c3)[nH]c12 (centres unmarked) [compound 436] |  | 300 nM | 4700 nM |
| COc1ccc(C)c2[nH]c(C(=O)NC(CCC(=O)N3CCOCC3)c3ncccc3C)cc12 (centres unmarked) [compound 514] |  | 24900 nM | 18300 nM |
| Cc1ccc(F)c2cc(C(=O)Nc3cccc(-c4ncco4)c3)[nH]c12 [compound 261] | 700 nM | 80 nM |  |
| Cc1ccc(F)c2cc(C(=O)Nc3cccc(-c4ccno4)c3)[nH]c12 [compound 196] | 400 nM | 100 nM |  |
| Cc1ccc(F)c2cc(C(=O)Nc3cccc(-c4ccc(CNS(C)(=O)=O)cc4)c3)[nH]c12 [compound 136] | 300 nM | 400 nM |  |
| Cc1cc(C2CCC(NC(=O)Cc3cccnc3)CC2)cnc1C(NC(=O)c1cc2cccc(C)c2[nH]1)C1CC1 (centres unmarked) [compound 423] |  | 600 nM | 3800 nM |
| Cc1ccc(F)c2cc(C(=O)Nc3cccc(C4(O)CCC(N(C)C)CC4)c3)[nH]c12 (centres unmarked) [compound 195] | 400 nM | 40 nM |  |
| CCNCC1CN(c2cccc(NC(=O)c3cc4c(F)ccc(C)c4[nH]3)c2)CCO1 (centres unmarked) [compound 203] |  | 10 nM | 400 nM |
| Cc1ccc(F)c2cc(C(=O)Nc3cc(N4CCN(C)CC4)c4nccn4c3)[nH]c12 [compound 338] | 1700 nM | 100 nM |  |
| Cc1ccc(F)c2cc(C(=O)Nc3cc(Cl)cc(N4CCC(CCCN5CCCC5)CC4)c3)[nH]c12 [compound 1158] |  | 6 nM | 900 nM |
| Cc1cccnc1C(CCC(=O)N1CCNCC1)NC(=O)c1cc2cccc(C)c2[nH]1 (centres unmarked) [compound 572] | > 25000 nM | 16600 nM |  |
| Cc1ccc(F)c2cc(C(=O)Nc3cccc(-c4nnco4)c3)[nH]c12 [Cpd. No. 60, N-(3-(1,3,4-oxadiazol-2-yl)phenyl)-4-fluoro-7-methyl-1H-indole-2-carboxamide] | 100 nM | 30 nM |  |
| Cc1ccc(F)c2cc(C(=O)N[C@@H]3CCC[C@H](N4CCn5c(c[nH]c5=O)C4)C3)[nH]c12 [compound 1059] | 600 nM | 20 nM |  |

| SMILES | IC50 ([1]; Homo sapiens) | IC50 [2] | IC50 [1] |
| --- | --- | --- | --- |
| Cc1ccc(F)c2cc(C(=O)Nc3cccc(C4COCCN4)c3)[nH]c12 (centres unmarked) [compound 307] | 1200 nM | 200 nM |  |
| Cc1ccc(F)c2cc(C(=O)Nc3cccc(-c4nnc(CO)s4)c3)[nH]c12 [compound 107] |  | 40 nM | 200 nM |
| Cc1ccc(F)c2cc(C(=O)Nc3cccc(S(C)(=O)=O)c3)[nH]c12 [compound 399] |  | 1800 nM | 2400 nM |
| Cc1cc(-c2ncccn2)cnc1C(NC(=O)c1cc2cccc(C)c2[nH]1)C1CC1 (centres unmarked) [compound 404] | 2800 nM | 300 nM |  |
| Cc1cc(C(=O)N[C@H]2CC[C@H]2N)cnc1C(NC(=O)c1cc2cccc(C)c2[nH]1)C1CC1 (some centres unmarked) [compound 451] | 5600 nM | 400 nM |  |
| CCC(=O)N1CCN(C2CCCC(NC(=O)c3cc4c(F)ccc(C)c4[nH]3)C2)CC1C(F)(F)F (centres unmarked) [compound 1167] |  | 20 nM | 60 nM |
| CC(=O)N1CCN(C2CC(NC(=O)c3cc4c(F)ccc(C)c4[nH]3)CN(C)C2)CC1 (centres unmarked) [compound 1109] |  | > 10000 nM | > 2000 nM |
| CNC(=C[N+](=O)[O-])N1CCN(C2CCCC(NC(=O)c3cc4c(F)ccc(C)c4[nH]3)C2)CC1 (centres unmarked) [compound 1169] |  | 900 nM | > 2000 nM |
| Cc1ccc(F)c2cc(C(=O)Nc3cccc(CN4CCN(C)CC4)c3)[nH]c12 [compound 421] |  | 400 nM | 3600 nM |
| Cc1ccc(F)c2cc(C(=O)NC(c3nn4ccccc4c3C)C3CC3)[nH]c12 (centres unmarked) [compound 424] |  | 700 nM | 3800 nM |
| COc1cccc2cc(C(=O)NC(CCC(=O)N3CCOCC3)c3ncccc3C)[nH]c12 (centres unmarked) [compound 515] |  | 25100 nM | 18500 nM |
| CCOC(=O)N1CCN([C@H]2CCC[C@@H](NC(=O)c3cc4c(F)ccc(C)c4[nH]3)C2)CC1 [compound 824] |  | 10 nM | 40 nM |
| Cc1cccc2cc(C(=O)Nc3ccc4cnccc4c3)[nH]c12 [compound 437] |  | 600 nM | 4800 nM |
| Cc1cccc2cc(C(=O)Nc3ccc4ncc(CN(C)C)n4c3C)[nH]c12 [compound 495] |  | 1800 nM | 13300 nM |
| Cc1ccc(F)c2cc(C(=O)NC3CCCC(N4CCCN(S(C)(=O)=O)CC4)C3)[nH]c12 (centres unmarked) [compound 982] |  | 1000 nM | > 2000 nM |
| Cc1ccc(F)c2cc(C(=O)NC3CCCC(N4CCN5C(=O)CN(C)C(=O)C5C4)C3)[nH]c12 (centres unmarked) [compound 1103] |  | 100 nM | 100 nM |
| Cc1ccc(F)c2cc(C(=O)Nc3cccc(N4CCC(NCCO)CC4)c3)[nH]c12 [compound 210] |  | 30 nM | 400 nM |
| CC(=O)N1CCN(c2cc(NC(=O)c3cc4c(F)ccc(C)c4[nH]3)ccc2F)CC1 [compound 79] |  | 70 nM | 200 nM |
| Cc1ccc(F)c2cc(C(=O)Nc3cccc(N4C5COCC4C5)c3)[nH]c12 [compound 422] |  | 1500 nM | 3700 nM |
| Cc1cccc2cc(C(=O)NCCc3cc(Cl)ccc3N3CCOCC3)[nH]c12 [compound 622] |  | > 200000 nM | > 25000 nM |
| Cc1ccc(F)c2cc(C(=O)N[C@@H]3CCC[C@@H](N4CCN(C)CC4=O)C3)[nH]c12 [compound 917] | > 2000 nM | > 10000 nM |  |
| Cc1ccc(F)c2cc(C(=O)NC3CCCC(N4CCC(N(C)C(=O)C5CC5)C4)C3)[nH]c12 (centres unmarked) [compound 971] |  | 10 nM | 100 nM |
| Cc1ccc(F)c2cc(C(=O)N[C@@H]3CCC[C@@H](N4CCn5c(cnc5C(F)(F)F)C4)C3)[nH]c12 [compound 994] | > 2000 nM | 1800 nM |  |
